Measured values as given in ChEMBL document CHEMBL5154691, “Discovery of novel verinurad analogs as dual inhibitors of URAT1 and GLUT9 with improved Druggability for the treatment of hyperuricemia” (Eur J Med Chem, 2022).

Legend:
[1] = biological target: T1, Solute carrier family 22 member 6 (Homo sapiens, UniProt Q4U2R8); test: Inhibition of OAT1 (unknown origin) expressed in HEK293 cells assessed as inhibition of 6-CFL uptake preincubated for 30 mins followed by incubation with 6-CFL and measured after 15 mins by fluorescence based analysis; type: toxicity, cell-based
T1 sequence (Q4U2R8 whole entry): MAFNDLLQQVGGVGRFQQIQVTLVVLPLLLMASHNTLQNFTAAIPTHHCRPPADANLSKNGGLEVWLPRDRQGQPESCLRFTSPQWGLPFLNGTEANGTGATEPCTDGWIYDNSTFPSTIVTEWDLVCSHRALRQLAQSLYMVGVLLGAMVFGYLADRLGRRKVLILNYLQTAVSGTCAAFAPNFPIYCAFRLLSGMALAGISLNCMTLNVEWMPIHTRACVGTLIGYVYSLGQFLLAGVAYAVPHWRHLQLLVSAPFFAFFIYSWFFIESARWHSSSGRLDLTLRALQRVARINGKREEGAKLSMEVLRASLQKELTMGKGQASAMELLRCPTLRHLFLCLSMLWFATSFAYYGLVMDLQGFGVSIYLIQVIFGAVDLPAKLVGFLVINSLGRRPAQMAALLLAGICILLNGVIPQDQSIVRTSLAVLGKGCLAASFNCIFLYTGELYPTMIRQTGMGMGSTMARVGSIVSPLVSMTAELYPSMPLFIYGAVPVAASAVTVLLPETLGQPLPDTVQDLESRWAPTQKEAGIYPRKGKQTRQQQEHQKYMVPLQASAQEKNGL

[2] = Inhibition of URAT1 F241Y mutant (unknown origin)-mediated 14C-uric acid uptake expressed in HEK293 cells using 14C-uric acid as substrate preincubated for 30 mins followed by substrate addition and measured after 15 mins by liquid scintillation counting analysis; type: cell-based; conditions: Homo sapiens
[3] = Cmax in Sprague-Dawley rat at 5 mg/kg, po measured upto 36 hrs by LC-MS/MS analysis; type: ADME, organism-based; set-up: time < 36 hrs, dose 5 mg/kg, route po; conditions: in vivo
[4] = AUC (0 to infinity) in Sprague-Dawley rat at 5 mg/kg, po by LC-MS/MS analysis; type: ADME, organism-based; set-up: time infinity, dose 5 mg/kg, route po; conditions: in vivo
[5] = biological target: T2, Solute carrier family 2, facilitated glucose transporter member 9 (Homo sapiens) (UniProt Q9NRM0); test: Inhibition of GLUT9 (unknown origin) expressed in HEK293T cells assessed as inhibition of uric acid-induced current at 10 uM by whole cell patch clamp technique; type: cell-based
T2 sequence (whole entry): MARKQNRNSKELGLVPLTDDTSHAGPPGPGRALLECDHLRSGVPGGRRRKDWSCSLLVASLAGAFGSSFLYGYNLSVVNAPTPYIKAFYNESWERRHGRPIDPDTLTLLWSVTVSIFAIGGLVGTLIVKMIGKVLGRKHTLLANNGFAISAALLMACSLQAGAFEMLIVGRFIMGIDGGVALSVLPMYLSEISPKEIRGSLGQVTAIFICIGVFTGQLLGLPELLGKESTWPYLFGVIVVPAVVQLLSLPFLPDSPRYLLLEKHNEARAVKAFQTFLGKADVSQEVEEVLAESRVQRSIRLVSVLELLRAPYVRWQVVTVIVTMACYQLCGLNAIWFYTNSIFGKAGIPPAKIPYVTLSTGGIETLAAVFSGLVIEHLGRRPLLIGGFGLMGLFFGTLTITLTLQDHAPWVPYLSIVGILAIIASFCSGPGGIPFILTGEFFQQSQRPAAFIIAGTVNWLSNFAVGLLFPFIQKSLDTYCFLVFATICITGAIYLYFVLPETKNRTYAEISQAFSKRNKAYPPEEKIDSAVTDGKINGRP

[6] = Tmax in Sprague-Dawley rat at 5 mg/kg, po measured upto 36 hrs by LC-MS/MS analysis; type: ADME, organism-based; conditions: in vivo
[7] = Inhibition of URAT1 I481M mutant (unknown origin)-mediated 14C-uric acid uptake expressed in HEK293 cells using 14C-uric acid as substrate preincubated for 30 mins followed by substrate addition and measured after 15 mins by liquid scintillation counting analysis; type: cell-based; conditions: Homo sapiens
[8] = Oral bioavailability in Sprague-Dawley rat at 5 mg/kg measured upto 36 hrs by LC-MS/MS analysis; type: ADME, organism-based; conditions: in vivo
[9] = Inhibition of URAT1 R477K mutant (unknown origin)-mediated 14C-uric acid uptake expressed in HEK293 cells using 14C-uric acid as substrate preincubated for 30 mins followed by substrate addition and measured after 15 mins by liquid scintillation counting analysis; type: cell-based; conditions: Homo sapiens
[10] = Inhibition of URAT1 F358Y mutant (unknown origin)-mediated 14C-uric acid uptake expressed in HEK293 cells using 14C-uric acid as substrate preincubated for 30 mins followed by substrate addition and measured after 15 mins by liquid scintillation counting analysis; type: cell-based; conditions: Homo sapiens
[11] = biological target: T3, Solute carrier family 22 member 12 (Homo sapiens, UniProt Q96S37); test: Inhibition of URAT1 (unknown origin)-mediated 14C-uric acid uptake expressed in HEK293 cells using 14C-uric acid as substrate preincubated for 30 mins followed by substrate addition and measured after 15 mins by liquid scintillation counting analysis; type: cell-based
T3 sequence (Q96S37 whole entry): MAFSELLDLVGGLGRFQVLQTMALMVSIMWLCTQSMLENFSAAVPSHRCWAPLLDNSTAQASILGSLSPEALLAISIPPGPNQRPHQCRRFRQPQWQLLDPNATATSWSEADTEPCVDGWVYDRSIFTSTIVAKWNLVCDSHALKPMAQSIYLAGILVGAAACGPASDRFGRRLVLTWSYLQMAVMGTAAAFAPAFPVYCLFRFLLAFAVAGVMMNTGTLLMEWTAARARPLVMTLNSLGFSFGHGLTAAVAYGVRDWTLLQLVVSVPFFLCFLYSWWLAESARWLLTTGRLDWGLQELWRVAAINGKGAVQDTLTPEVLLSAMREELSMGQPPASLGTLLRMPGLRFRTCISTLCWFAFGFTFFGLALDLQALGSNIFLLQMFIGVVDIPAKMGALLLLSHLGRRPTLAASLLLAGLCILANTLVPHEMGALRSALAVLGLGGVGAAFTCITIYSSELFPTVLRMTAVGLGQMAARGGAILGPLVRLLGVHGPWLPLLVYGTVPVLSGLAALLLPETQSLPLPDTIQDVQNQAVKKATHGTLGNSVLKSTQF

[12] = Tmax in Sprague-Dawley rat at 5 mg/kg, iv measured upto 36 hrs by LC-MS/MS analysis; type: ADME, organism-based; conditions: in vivo
[13] = Inhibition of URAT1 S35N mutant (unknown origin)-mediated 14C-uric acid uptake expressed in HEK293 cells using 14C-uric acid as substrate preincubated for 30 mins followed by substrate addition and measured after 15 mins by liquid scintillation counting analysis; type: cell-based; conditions: Homo sapiens
[14] = AUC (0 to infinity) in Sprague-Dawley rat at 5 mg/kg, iv by LC-MS/MS analysis; type: ADME, organism-based; set-up: time infinity, dose 5 mg/kg, route iv; conditions: in vivo
[15] = Cmax in Sprague-Dawley rat at 5 mg/kg, iv measured upto 36 hrs by LC-MS/MS analysis; type: ADME, organism-based; set-up: time < 36 hrs, dose 5 mg/kg, route iv; conditions: in vivo
[16] = Renal toxicity in xanthine and potassium oxonate-induced acute hyperuricemia Kunming mouse model assessed as serum creatinine level at 10 mg/kg, po measured after 3 hrs; type: organism-based; conditions: in vivo
[17] = Half life in Sprague-Dawley rat at 5 mg/kg, po measured upto 36 hrs by LC-MS/MS analysis; type: ADME, organism-based; conditions: in vivo

IC50 [2]: 310 nM
Cmax [3]: 7650 ng/mL
AUC(0-inf) [4]: 5660 ng·h/mL
inhibition [5]: 51%
Tmax [6]: 30 min
IC50 [7]: 310 nM
bioavailability [8]: 30.1%
IC50 [9]: 2170 nM
IC50 [10]: 780 nM
IC50 [11]: 240 nM
Tmax [12]: 10.2 min
IC50 [13]: 3140 nM
AUC(0-inf) [14]: 18500 ng·h/mL
Cmax [15]: 11100 ng/mL
half-life [17]: 308 min
Structure (SMILES): N#Cc1ccc(Nc2cnccc2SCc2ccccc2C(=O)[O-])c2ccccc12.[Na+]
IC50 [1]: 32100 nM
Activity [16]: Non-Toxic
